In US20130045948A1, “AZOCYCLIC INHIBITORS OF FATTY ACID AMIDE HYDROLASE” (E I DU PONT DE NEMOURS AND COMPANY, priority 2009, published 2013):

What was measured:
[1] = system: female Cr1:CD1(ICR) mice; assay: Tail immersion assay in mice (analgesic potential, in combination with anandamide); settings: for analgesic effects at the rate tested (conclusion) / % of the treated animals exhibiting the maximum measured response time of 10 sec: 10 mg/kg i.p. plus anandamide 50 mg/kg; for % MPE (percent of the maximum possible effect (test-baseline)/(10-baseline)) / Test Time / Baseline Time: mean; for Baseline Time: prior to administration of compounds, tail in water 52+/−1° C.
Protocol: Test substances were injected once by intraperitoneal (i.p.) route to female Cr1:CD1(ICR) mice. The tail immersion assay was conducted prior to administration of compounds to establish baseline values and again after administration of compounds.
Analgesia was evaluated in female mice by immersing approximately 3.5 cm of each tail into water that was maintained at 52+/−1° C. for a maximum of 10 seconds (sec). The length of time until the animal removed its tail from the water or made a significant tail movement was measured. If the response time was less than 5 sec, a second trial was conducted.
Based on the results of the preliminary study, the time interval between administration of the test substances and anandamide was established as 40 minutes. In addition, the time interval between administration of anandamide and conducting the tail immersion assay was established to be 40 minutes.
The formulations were made on the day of dosing and administered once by intraperitoneal route.

[2] = biological target: T1, recombinant human FAAH (MBP-ΔTM-FAAH) (Homo sapiens, UniProt O00519); assay: FAAH assay, fluorogenic substrate D-AMC; assay type: biochemical; settings: D-AMC 5 μM, pH 8.0, 37° C.
T1 construct: The region of the gene corresponding to amino acids 34 to 579 was cloned into pMAL-c4x; made in house; host or cells: E. coli T7 Express
T1 sequence (O00519 34-579): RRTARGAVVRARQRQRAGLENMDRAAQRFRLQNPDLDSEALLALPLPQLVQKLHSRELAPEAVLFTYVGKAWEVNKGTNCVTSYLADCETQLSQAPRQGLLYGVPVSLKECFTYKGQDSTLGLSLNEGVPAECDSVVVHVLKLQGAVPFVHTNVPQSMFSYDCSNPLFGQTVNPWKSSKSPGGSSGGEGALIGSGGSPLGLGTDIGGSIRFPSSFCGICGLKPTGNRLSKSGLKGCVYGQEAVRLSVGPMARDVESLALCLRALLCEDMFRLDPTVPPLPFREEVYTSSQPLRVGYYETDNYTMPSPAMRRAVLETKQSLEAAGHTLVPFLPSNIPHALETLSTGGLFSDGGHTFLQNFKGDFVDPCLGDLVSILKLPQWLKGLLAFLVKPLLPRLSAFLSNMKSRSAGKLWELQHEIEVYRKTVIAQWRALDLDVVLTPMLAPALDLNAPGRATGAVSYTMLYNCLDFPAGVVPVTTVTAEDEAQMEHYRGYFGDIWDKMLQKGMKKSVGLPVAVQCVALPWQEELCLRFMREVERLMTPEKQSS
Protocol: E. coli T7 Express cells, containing the FAAH constructs, were used for expression of protein by induction with IPTG (isopropyl-β-D-thiogalactopyranoside) (100 μM) overnight at room temperature in Lennox Broth with 0.2% glucose. After harvest, the cells were resuspended in 20 mM Hepes buffer (pH 7.4) containing 200 mM NaCl, 2 mM DTT (dithiothreitol). The cell suspension was lysed by sonication, and the cell debris removed by centrifugation. […] The enzyme was eluted using 15 mM maltose as per manufacturer's (New England BioLabs, Inc.) instruction. Fractions containing FAAH were concentrated and further purified using Sephacryl™ 5100 (HIPrep™ 26/60, GE Healthcare, Inc.) chromatography. […]
FAAH assay—Enzyme activity was measured using the fluorogenic substrate, decanoyl 7-amino-4-methylcoumarin (D-AMC) as described by Kage, K. L. et al. J. of Neuroscience Methods 2007, 161, 47-54. […] Reactions were carried out in black 96-well microplates (Costar, Inc) using a SpectraMax Gemini™ (Molecular Devices, Inc.) fluorescence plate reader in a reaction volume of 200 μL per well at 37° C. Reaction rates were monitored at an emission wavelength of 430 nm using an excitation wavelength of 351 nm over 30 to 40 minutes. Experimental compounds were initially evaluated at a single concentration of 2 μM.

[3] = cited from earlier work
[4] = 10 mg/kg i.p., anandamide 50 mg/kg i.p. 40 minutes later, assay 40 minutes after anandamide
[5] = 10 mg/kg i.p., anandamide 50 mg/kg i.p. 40 minutes later, assay 40 minutes after anandamide, maximum 10 sec
[6] = anandamide 50 mg/kg i.p. alone (negative control), assay 40 minutes after

For `O=C(Nc1ccccc1)N1CCC(c2nc(C3=NOC(c4ccccc4)C3)cs2)CC1` (stereo not drawn) [Compound 1, 4-[4-(4,5-dihydro-5-phenyl-3-isoxazolyl)-2-thiazolyl]-N-phenyl-1-piperidinecarboxamide], which “analgesic effects at the rate tested (conclusion)” value [1] is on record?
Its value is “no analgesic effects”.

What about the “% MPE (percent of the maximum possible effect (test-baseline)/(10-baseline))” value [1, 4] of the same compound?
The value was 20.2%.

And the “Test Time” value [1, 5]?
Its value is 5.0 s.

And the “Baseline Time” value ([1]; maximum 10 sec)?
The value was 3.5 s.

What does the source list for `O=C(Oc1ccccc1)N1CCC(c2nc(C3=NOC(c4ccccc4)C3)cs2)CC1` (stereo not drawn) [Compound 11, phenyl 4-[4-(4,5-dihydro-5-phenyl-3-isoxazolyl)-2-thiazolyl]-1-piperidinecarboxylate]?
% of the treated animals exhibiting the maximum measured response time of 10 sec [1]: 100%; analgesic effects at the rate tested (conclusion) [1]: analgesic effects; % MPE (percent of the maximum possible effect (test-baseline)/(10-baseline)) [1, 4]: 100.0%; Test Time [1, 5]: 10.0 s; Baseline Time ([1]; maximum 10 sec): 5.8 s

For `O=C(Oc1ccccc1)N1CCC(c2nc(C3=NOC4(CCCc5ccccc54)C3)cs2)CC1` (stereo not drawn) [Compound 52], which IC50 [2] is on record?
The IC50 was 0.029 µM.

Which results are given for `CCCCC/C=C\C/C=C\C/C=C\C/C=C\CCCC(=O)NCCO` [Anandamide, reference compound]?
causing hypothermia or analgesia ([3]; anandamide alone): largely ineffective; % MPE (percent of the maximum possible effect (test-baseline)/(10-baseline)) [1, 6]: 20.3%; Test Time [1, 6]: 6.7 s; Baseline Time ([1]; maximum 10 sec): 6.9 s

With `O=C(Nc1nccs1)N1CCC(c2nc(C3=NOC(c4ccccc4)C3)cs2)CC1` (stereo not drawn) [Compound 49] as the compound, how does the “analgesic effects at the rate tested (conclusion)” value [1] read?
Its value is “no analgesic effects”.

And the “% MPE (percent of the maximum possible effect (test-baseline)/(10-baseline))” value [1, 4]?
The value was −4.0%.

And the “Test Time” value [1, 5]?
The value was 6.4 s.

And the “Baseline Time” value ([1]; maximum 10 sec)?
The value was 7.5 s.

What does the source list for `O=C(Oc1ccccc1Cl)N1CCC(c2nc(C3=NOC(c4ccccc4)C3)cs2)CC1` (stereo not drawn) [Compound 61]?
% of the treated animals exhibiting the maximum measured response time of 10 sec [1]: 90%; analgesic effects at the rate tested (conclusion) [1]: analgesic effects; % MPE (percent of the maximum possible effect (test-baseline)/(10-baseline)) [1, 4]: 86.9%; Test Time [1, 5]: 9.4 s; Baseline Time ([1]; maximum 10 sec): 6.0 s

For `O=C(CCCCCCc1ccccc1)c1ncc(-c2ccccn2)o1` [OL-135, reference compound], which analgesic effect ([3]; anandamide administered along with OL-135) is on record?
Its analgesic effect is “significantly elevated”.

And the “% MPE (percent of the maximum possible effect (test-baseline)/(10-baseline))” value [1, 4]?
The value was 61.5%.

And the “Test Time” value [1, 5]?
Its value is 7.6 s.

What about the “Baseline Time” value ([1]; maximum 10 sec) of the same compound?
Its value is 4.1 s.
